# Experimental data reported in publication PMC5520047, “Prioritizing multiple therapeutic targets in parallel using automated DNA-encoded library screening” (Nature Communications, 2017).
# Read-outs that look alike come from different tables or passages of the source.
# Columns and labels:
# [1] = system: E. coli TOP10 ∆TolC, pHN678’ and pHN678’-LolA antisense; assay: MoA study: MIC in lolA antisense expressor; type: cell-based, Escherichia coli; conditions: for MIC: Escherichia coli; for Fold MIC decrease: lolA antisense plasmid compared to vector alone
# [2] = target: M. tuberculosis Dihydrofolate reductase (DHFR) (Mycobacterium tuberculosis, UniProt P9WNX1); assay: biochemical; conditions: M. tuberculosis DHFR; average of two replicates with s.d.; read-out: IC50
# M. tuberculosis Dihydrofolate reductase (DHFR), sequence (P9WNX1 whole entry): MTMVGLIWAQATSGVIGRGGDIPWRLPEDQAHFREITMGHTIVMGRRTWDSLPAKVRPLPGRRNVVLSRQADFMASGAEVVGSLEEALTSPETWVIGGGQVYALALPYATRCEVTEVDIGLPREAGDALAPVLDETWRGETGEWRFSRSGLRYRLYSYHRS
# [3] = system: M. tuberculosis H37Rv; assay: MIC determination against M. tuberculosis H37Rv (resazurin); type: cell-based; conditions: Mycobacterium tuberculosis
# Procedure: (§1) 409 remaining NADPH to convert resazurin into the fluorescent resorufin14. The assay buffer containing
# (§2) 410 81.4 mM Hepes pH 7.8, 300 mM KCl, 0.4 mg/mL BSA was used to make the enzyme addition containing
# (§3) 411 1.2 μg/mL Mtb DHFR and 50 μM NADPH. This was added in equal volume (5 μL) to a substrate solution
# (§4) 412 composed of 240 µM DHF in H2O and incubated for 50 min. Developing solution was prepared with
# (§5) 413 0.045 mM Resazurin and 0.6 U/ml Diaphorase in 200 mM sodium phosphate buffer pH 7.8 and 5 μL was
# (§6) 414 added. The experiments were conducted in black 384-well plates (Greiner Catalog # 784076) and all
# (§7) 415 liquid additions were conducted using a Multidrop combi (Thermo Scientific). The plate was read on a
# (§8) 416 ViewLux following a 10 minute delay. Resorufin light production was measured using appropriate
# (§9) 417 Viewlux filters: Ex: 525 / 20 Pol (BODIPY TMR FP) Em: 598 / 25 (BODIPY TMR) (B04). Assay plates were
# (§10) 418 pre-dispensed with 100 nL DMSO or with 100 nL compounds dissolved in neat DMSO using an Echo®
# (§11) 419 liquid handler (Labcyte Inc.) where all wells contained compound samples, except wells in columns 6
# 420 and 18 that contained DMSO control. Column 6 represented 100% Mtb DHFR activity in the absence of
# 421 GSK compounds. […] Compounds were
# 422 tested at 1% DMSO in 11 point dose response with a 1:3 dilution and fit to a standard 4 parameter fit to
# 423 calculate an IC50 value and are reported as the average of two replicates. Standard deviation values
# 424 were calculated using the n-1 method.
# 428 Minimum Inhibitory Concentration Assays:
# 429 MIC determination against M. tuberculosis H37Rv:
# 430 The measurement of the Minimum Inhibitory Concentration (MIC) against M. tuberculosis H37Rv for
# 431 each tested compound was performed in 96-well flat-bottom, polystyrene microtiter plates in a final
# 432 volume of 100 μl. Ten two-fold drug dilutions in neat DMSO starting at 50 mM were performed. Drug […]
# (§12) 440 saline). […] Fluorescence was measured (Spectramax M5 […]
# (§13) 444 Minimum inhibitory concentrations (MICs) of compounds were determined using broth microdilution […]
# [4] = system: A. baumannii BM4652 efflux mutant, pRK415 and pRK415-UppS; assay: microbe, parasite or virus in culture; type: cell-based, Acinetobacter baumannii; conditions: 30 μg/ml polymyxin B nonapeptide; for MIC: Acinetobacter baumannii; for Fold MIC increase: pRK415-UppS overexpressing strain relative to parent strain
# [5] = system: H. influenzae ΔtolC; assay: MIC broth microdilution; type: cell-based; conditions: Haemophilus influenzae
# [6] = system: Pseudomonas aeruginosa PA0322 Δ(mexAB-oprM) Δ(mexCD-oprJ) Δ(mexEF-oprN); assay: MIC broth microdilution; type: cell-based
# [7] = system: Klebsiella pneumoniae 1161486a ΔtolC; assay: MIC broth microdilution; type: cell-based
# [8] = system: Escherichia coli 7623 ΔtolC; assay: MIC broth microdilution; type: cell-based
# [9] = system: Acinetobacter baumannii BM4652 ΔadeABC ΔadeIJK (efflux mutant); assay: MIC broth microdilution; type: cell-based
# [10] = system: Acinetobacter baumannii ATCC 19606-1 ΔLpxC; assay: MIC broth microdilution; type: cell-based; conditions: ATCC19606
# [11] = system: Staphylococcus aureus RN4220; assay: MIC broth microdilution; type: cell-based; conditions: S. aureus RN4220 Gram-positive
# Procedure: as §1, §2, §3, §4, §5, §6, §7, §8, §9, §10, §11
# 420 and 18 that contained DMSO control. Column 6 represented 100% Mtb DHFR activity in the absence of […]
# 424 were calculated using the n-1 method. […]
# as §12, §13
# [12] = system: A. baumannii BM4652, BM4652/pRK415, BM4652/pRK415-LpxA; assay: MoA study: MIC and MGIC in LpxA overexpressor; type: cell-based; conditions: Acinetobacter baumannii
# [13] = system: A. baumannii BM4652 strains; assay: Potentiation of teicoplanin MIC by LpxA compound 4; type: cell-based, Acinetobacter baumannii
# [14] = target: S. aureus methionyl-tRNA synthetase (MRS) (Staphylococcus aureus, UniProt Q5HII6); assay: t-RNA synthetase biochemical assay (MRS); conditions: average of two replicates with s.d.
# S. aureus methionyl-tRNA synthetase (MRS), sequence (Q5HII6 whole entry): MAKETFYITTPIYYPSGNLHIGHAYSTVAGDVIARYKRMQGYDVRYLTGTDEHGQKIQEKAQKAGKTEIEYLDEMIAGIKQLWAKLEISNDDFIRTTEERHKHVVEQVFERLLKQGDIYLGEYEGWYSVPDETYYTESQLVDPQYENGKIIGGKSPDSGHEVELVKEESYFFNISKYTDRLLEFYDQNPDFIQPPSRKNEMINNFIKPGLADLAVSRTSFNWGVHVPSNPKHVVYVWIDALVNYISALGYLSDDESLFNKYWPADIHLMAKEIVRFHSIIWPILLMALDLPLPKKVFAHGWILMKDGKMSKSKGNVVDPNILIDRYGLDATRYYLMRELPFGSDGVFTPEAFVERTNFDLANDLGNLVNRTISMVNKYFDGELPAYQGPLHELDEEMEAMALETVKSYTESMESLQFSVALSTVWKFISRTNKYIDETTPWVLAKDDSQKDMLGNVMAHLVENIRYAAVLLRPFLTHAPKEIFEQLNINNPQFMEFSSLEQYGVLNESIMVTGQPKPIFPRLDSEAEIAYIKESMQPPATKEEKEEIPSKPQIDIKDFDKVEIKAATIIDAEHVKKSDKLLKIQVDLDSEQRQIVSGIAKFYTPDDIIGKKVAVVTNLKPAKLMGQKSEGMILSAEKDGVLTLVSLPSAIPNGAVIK
# [15] = system: S. aureus WCUH29 wild type; assay: MIC broth microdilution; type: cell-based, Staphylococcus aureus; conditions: Staphylococcus aureus, WCUH29WILDTYPE; S. aureus WCUH29 wild type; read-out: MIC
# [16] = system: S. aureus RN4220 (pYH4) and RN4220 (pYH4-MRS); assay: MoA study: MIC in MRS overexpressor strain; type: cell-based, Staphylococcus aureus; conditions: for MIC: Staphylococcus aureus
# [17] = E. coli TOP10 ∆TolC + pHN678’-LolA antisense
# [18] = A. baumannii BM652 efflux strain
# [19] = A. baumannii BM4652 ΔadeABC ΔadeIJK efflux mutant
smiles,measurement,setting,value
O=C(O)c1cn(C2CC2)c2cc(N3CCNCC3)c(F)cc2c1=O [Ciprofloxacin],MIC,[1]; E. coli TOP10 ∆TolC + pHN678’,0.0078 µg/mL
same,MIC,[1]; [17],0.0078 µg/mL
Cc1cccc(NC(=O)Cc2c(C(=O)O)[nH]c3ccccc23)n1 [Compound 9],IC50,[2],4900 ± 2200 nM
same,MIC,[3],80 µM
CC[C@H]1OC(=O)[C@H](C)[C@@H](O[C@H]2C[C@@](C)(OC)[C@@H](O)[C@H](C)O2)[C@H](C)[C@@H](O[C@@H]2O[C@H](C)C[C@H](N(C)C)[C@H]2O)[C@](C)(O)C[C@@H](C)CN(C)[C@H](C)[C@@H](O)[C@]1(C)O [Azithromycin],MIC,[4]; A. baumannii BM4652 efflux mutant + pRK415-UppS,0.031 µg/mL
same,MIC,[4]; A. baumannii BM4652 efflux mutant + pRK415,0.031 µg/mL
same,MIC,"[4]; A. baumannii BM4652 efflux mutant, N/A (no plasmid)",0.031 µg/mL
same,Fold MIC increase,[4],1 fold
same,Fold MIC increase,[4]; listed as azithromycin,unchanged
same,MIC,[1]; E. coli TOP10 ∆TolC + pHN678’,0.0156 µg/mL
same,MIC,[1]; [17],0.0039 µg/mL
same,Fold MIC decrease,[1],4 fold
CCNc1cc(N2CCc3cc(NS(C)(=O)=O)ccc3C2C)nc(-c2cc(F)cc(C#N)c2)n1 (stereo not drawn) [Compound 6],MIC,[5],2 µg/mL
same,MIC,[6],> 128 µg/mL
same,MIC,[7],> 128 µg/mL
same,MIC,[1]; E. coli TOP10 ∆TolC + pHN678’,128 µg/mL
same,MIC,[1]; [17],4 µg/mL
same,Fold MIC decrease,[1],32 fold
same,MIC,[8],> 128 µg/mL
same,MIC,[9]; [18],> 128 µg/mL
same,MIC,[9]; [19],> 128 µg/mL
same,MIC,[10],32 µg/mL
same,MIC,[11],> 128 µg/mL
Cc1cc(C)c(NC(=O)NC(CCC(=O)N2CCN(C)CC2)C(=O)Nc2cccc3c2CCCC3)c(C)c1 (stereo not drawn) [Compound 4],MIC,[6],> 128 µg/mL
same,MIC,[7],> 128 µg/mL
same,MIC,[8],> 128 µg/mL
same,MIC,[12]; A. baumannii BM4652 (efflux-),> 128 µg/mL
same,MIC,[12]; A. baumannii BM4652/pRK415 (efflux-),> 128 µg/mL
same,MIC,[12]; A. baumannii BM4652/pRK415-LpxA (efflux-),> 128 µg/mL
same,MIC,"[12]; read-out: MGIC (minimum growth inhibition concentration), A. baumannii BM4652 (efflux-)",8 µg/mL
same,MIC,"[12]; read-out: MGIC (minimum growth inhibition concentration), A. baumannii BM4652/pRK415 (efflux-)",8 µg/mL
same,MIC,"[12]; read-out: MGIC (minimum growth inhibition concentration), A. baumannii BM4652/pRK415-LpxA (efflux-)",> 128 µg/mL
same,concentration of compound 4 required to completely potentiate teicoplanin,[13]; A. baumannii BM4652,32 µg/mL
same,concentration of compound 4 required to completely potentiate teicoplanin,[13]; A. baumannii BM4652 with LpxA overexpressor clone,> 128 µg/mL
same,MIC,[9]; [18],> 64 µg/mL
same,MIC,[9]; [19],> 128 µg/mL
same,MIC,[10],> 128 µg/mL
same,MIC,[11],> 128 µg/mL
CNC(=O)c1ccc2c(c1)nc(-c1ccc(Br)c(O)c1)n2C(CNC(=O)COc1ccccc1C(C)(C)C)c1ccc(OC)c(OC)c1 (stereo not drawn) [Compound 1],IC50,[14],0.83 ± 0.05 nM
same,MIC,[15],0.5 µg/mL
same,MIC increase,[16]; MRS overexpressor induced with 0.1 μg ml^−1 anhydrotetracycline vs vector control strain,> 128 fold
same,MIC increase,[16]; MRS overexpressor uninduced vs vector control strain,8 fold
same,MIC,[16]; S. aureus RN4220 pYH4-MRS (induced with 0.1 µg/ml anhydrotetracycline),64 µg/mL
same,MIC,[16]; S. aureus RN4220 pYH4-MRS overexpressor (uninduced),4 µg/mL
same,MIC,[16]; S. aureus RN4220 pYH4 vector alone,0.5 µg/mL
